Measurements as given in ChEMBL document CHEMBL1155699, “Steroidal alkaloids from the leaves of Sarcococca coriacea of Nepalese origin” (J Nat Prod, 2001).

What was measured:
Acetylcholinesterase = Acetylcholinesterase (Electrophorus electricus, UniProt O42275); assay: Inhibition of electric eel AChE by Ellman's method
Cholinesterase = Cholinesterase (Equus caballus, UniProt P81908); assay: Inhibition of horse BChE
Sequence of Cholinesterase (P81908 whole entry): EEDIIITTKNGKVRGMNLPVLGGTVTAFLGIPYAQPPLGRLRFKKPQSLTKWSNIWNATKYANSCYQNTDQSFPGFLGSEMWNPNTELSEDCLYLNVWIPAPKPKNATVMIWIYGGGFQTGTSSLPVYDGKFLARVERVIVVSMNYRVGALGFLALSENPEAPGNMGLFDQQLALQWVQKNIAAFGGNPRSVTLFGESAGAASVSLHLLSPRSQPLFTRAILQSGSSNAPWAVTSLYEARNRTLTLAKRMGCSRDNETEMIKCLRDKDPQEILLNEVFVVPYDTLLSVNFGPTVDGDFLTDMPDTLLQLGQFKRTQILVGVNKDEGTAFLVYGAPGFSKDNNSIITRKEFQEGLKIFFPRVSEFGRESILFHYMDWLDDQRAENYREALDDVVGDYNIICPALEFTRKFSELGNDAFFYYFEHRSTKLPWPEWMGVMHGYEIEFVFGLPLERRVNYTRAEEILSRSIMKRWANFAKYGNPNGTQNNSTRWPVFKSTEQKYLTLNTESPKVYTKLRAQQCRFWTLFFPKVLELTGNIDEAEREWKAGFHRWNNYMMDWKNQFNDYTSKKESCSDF

Sequence of Acetylcholinesterase (O42275 whole entry): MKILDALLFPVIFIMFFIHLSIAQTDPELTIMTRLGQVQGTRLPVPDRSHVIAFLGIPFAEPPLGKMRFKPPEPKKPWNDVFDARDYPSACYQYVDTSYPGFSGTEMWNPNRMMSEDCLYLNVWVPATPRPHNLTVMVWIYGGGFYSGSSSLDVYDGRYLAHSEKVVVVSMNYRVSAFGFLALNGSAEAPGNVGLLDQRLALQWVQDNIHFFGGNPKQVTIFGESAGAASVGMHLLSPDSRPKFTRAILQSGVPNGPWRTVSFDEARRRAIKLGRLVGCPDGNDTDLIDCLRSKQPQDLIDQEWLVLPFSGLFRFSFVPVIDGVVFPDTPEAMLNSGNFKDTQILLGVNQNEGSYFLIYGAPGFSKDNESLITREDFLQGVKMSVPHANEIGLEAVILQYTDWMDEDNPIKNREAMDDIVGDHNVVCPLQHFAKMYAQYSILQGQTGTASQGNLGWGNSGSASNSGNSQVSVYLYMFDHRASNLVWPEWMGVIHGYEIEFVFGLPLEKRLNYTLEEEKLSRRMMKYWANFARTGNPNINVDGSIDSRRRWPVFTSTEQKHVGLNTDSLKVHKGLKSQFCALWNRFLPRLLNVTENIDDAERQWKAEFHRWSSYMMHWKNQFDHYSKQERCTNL

SMILES | IC50 (Acetylcholinesterase) [µM] | IC50 (Cholinesterase) [µM]
C/C=C(\C)C(=O)N[C@@H]1[C@H](OC(C)=O)[C@@H]2CC[C@@H]3[C@H](CC[C@]4(C)C([C@H](C)NC)=CC[C@@H]34)[C@@]2(C)C[C@@H]1OC(C)=O [NEPAPAKISTAMINE] | 50.1 | 25
CC(=O)O[C@H]1[C@@H](NC(=O)C=C(C)C)CC[C@]2(C)[C@H]3CC[C@]4(C)C([C@H](C)N(C)C)=CC[C@H]4[C@@H]3CC[C@@H]12 [VAGANINE D] | 46.9 | 10
